“Also recorded” adds a separate entry of the source. Bridge positions count the residues as written; N and C are the ends. Peptide text beside a SMILES is read from it.
Columns and labels:
[1] = test system: human lung adenocarcinoma cells; details: by blocking Kv1.2 and Kv1.3; ref [15],[16]; cited from earlier work
Excerpt: (§1) For instance, several research projects have focused on the use of scorpion neurotoxins as potential new treatments against cancers.

[2] = test system: C57BL/6 mice; experiment: Neurotoxic activity in mice by intracerebroventricular injection (LD50); assay type: in vivo, mouse
Method: 4.5. The Neurotoxic Activity of MTX1 in Mice
To assess the LD50 of the MTX1, different doses of the peptide were administered to males C57BL/6 mice (20 ± 2 g) by an intracerebroventricular injection under ether anesthesia, which is considered the most sensitive route for scorpion toxins in mammals. Each dose was suspended/diluted in 5 μL of 0.1% (w/v) BSA and tested on six mice. Symptoms of toxicity were observed and recorded over a 24 h period. The median lethal dose (LD50) corresponds to the dose required to kill half of the tested mice.

[3] = test system: anti-MTX mice polyclonal antibodies; experiment: ELISA cross-antigenicity with anti-MTX serum; assay type: binding, mouse
Method: Upon retrieval of pre-immune serum via retro-orbital puncture, 30 µg of MTX1 or saline (0.9% NaCl) in complete Freund’s adjuvant was subcutaneously administered to 6-week-old mice on day 1. Subsequent booster injections of incomplete Freund’s adjuvant were administered 15 and 25 days later. On […], the mice were bled and used for ELISA experiments in 96-well microtitration plates (catalog number M5785-1CS Sigma Aldrich, MO, USA). […] The optimal dilution of the immune serum resulting in half-maximum binding of MTX to its specific antiserum was determined to be 1/100,000.
The specificity of anti-MTX against MTX1 and CHTX toxins was assessed using ELISA. One hundred microliters of 5 μg/mL of antigen (MTX1 and CHTX) in 0.1 M sodium bicarbonate buffer at pH 9.6 were adsorbed on 96-well NUNC plates for 90 min at 37 °C. […] Finally, 200 μL of 0.4 mg/mL OPD in citrate buffer (pH 5.2 containing H2O2 (0.03%) was added to each well, followed by a 5 min incubation in the dark at room temperature. The reaction was halted by adding 50 μL of 2 N sulfuric acid. The absorbance at 492 nm was measured using a spectrophotometer (Thermo-Multiskan EX, Shanghai, China). The immune serum titer corresponded to the dilution that yielded 50% of the maximum absorbance.

[4] = test system: 125I-CHTX binding site of rat brain synaptosomes (Kv channels); experiment: Competition binding with 125I-CHTX on rat brain synaptosomes; details: conclusion in words
[5] = biological target: T1, rat Kv1.3 (Rattus norvegicus, UniProt P15384); experiment: Two-electrode voltage clamp, Kv1.3 expressed in Xenopus laevis oocytes; assay type: cell-based
T1 construct: expressed in transfected cells; host or cells: Xenopus laevis oocytes, cRNA injection
Excerpt: (§2) 4.11. Oocyte Preparation and Electrophysiological Recordings
(§3) The xenopus was anesthetized in a bath of tricaine solution. It was then placed on its back in a dissecting tank covered with alcohol-cleaned BenchGuard paper. A horizontal slit was made in the animal’s lower abdomen by incising a piece of the underlying muscle with the skin. The ootheca were then gently pulled outwards and a portion was cut out and transferred to a sterile Erlen tube containing MBS medium, leaving the rest in place in the ovary. Finally, the incision was closed using sterile, absorbable sutures.
(§4) Xenopus laevis oocytes at stages V and VI were retrieved and prepared for cRNA injection and electrophysiological recordings. The enzymatic elimination of oocyte follicular cell layers was carried out by employing 2 mg·mL^−1 collagenase IA (Sigma, St. Louis, MO, USA) in the classical Barth’s medium containing (in mm) 88 NaCl, 1 KCl, 0.82 MgSO4, 0.33 Ca(NO3)2, 0.41 CaCl2, 2.4 NaHCO3, and 15N-2-hydroxyethylpiperazine-N′-ethanesulfonic acid (Hepes), with a pH of 7.4 (NaOH). The plasmids were digested using Xba1 (rat Kv1.2) and EcoR1 (rat Kv1.3). The resultant linearized plasmids were transcribed using either a T7 or SP6 mMessage mMachine transcription kit (Ambion, Austin, TX, USA). Subsequently, cRNAs (1 µg·µL^−1) were cryopreserved in H2O at −80 °C. Injection of cells with 50 nL of cRNA (0.2 µg·µL^−1 rat Kv1.2, or Kv1.3 channels) took place 2 days later. To promote the expression of ion channels, the cells were cultured at 16 °C in a specified nutrient oocyte medium for 2–6 days prior to conducting current recordings. Oocyte currents were captured at 20–22 °C using conventional two-microelectrode techniques with a voltage-clamp amplifier (GeneClamp 500; Axon Instruments, Foster City, CA, USA) linked to a 16-bit AD/DA converter (Digidata 1200A, Axon Instruments). […] Voltage pulses were administered every 15 s, maintaining a holding potential of −80 mV. Current data were sampled at 10 kHz, subjected to low-pass filtration at 2 kHz through an eight-pole Bessel filter and archived on a computer for subsequent assessment. The extracellular solution for recording contained (in mM) 88 NaCl, 10 KCl, 2 MgCl2, 0.5 CaCl2, 0.5 niflumic acid, 5 Hepes, and 0.1% bovine serum albumin, with a pH of 7.4 (NaOH). The P/4 protocol was implemented for online subtraction of the leak and capacitive currents. Any residual capacitive artifacts were eliminated for visualization purposes. The peptide solutions of MTX1 were perfused into the recording chamber at a flow rate of 2 mL/min using a ValveBank4 apparatus (Automate Scientific Inc., St Berkeley, CA 94710, USA). Data analysis was conducted using the software patch clamp 6.0.3 (Axon Instruments, Foster City, CA, USA). The outcomes are presented as the mean ± SEM.

[6] = test system: 125I-apamin binding site of rat brain synaptosomes (SKCa channels); experiment: Competition binding with 125I-apamin on rat brain synaptosomes (SKCa channels)
Method: The rats were euthanized by dislocation and their brains were rapidly removed and placed on a cold plate. The brain tissue was suspended in a 10% (w/v) sucrose-HEPES buffer in a polytron homogenizer with a protease inhibitor. Synaptosomal membranes were prepared as previously described. The protein content of the membranes, determined by the […], was 0.92 µg/µL. The protein content was determined using a modified Lowry method, with assays conducted on the synaptosomal fraction P2 isolated from rat brain. MTX1 was reacted with Na [^125I] (Amersham Biosciences, Buckinghamshire, United Kingdom) in the presence of lactoperoxidase and H2O2 in 50 mM phosphate buffer at pH 7.2. The separation of free iodine was achieved by anion exchange chromatography using Dowex 1X-8 (Merck, Darmstadt, Germany). The mixture was then injected into a reverse-phase HPLC column (analytical RP-C18 Beckman, Ultrasphere, 5 μm, 4.6 × 250 mm). Solvent A consisted of 0.1% trifluoroacetic acid (v/v) in water, and solvent B consisted of 0.1% trifluoroacetic acid (v/v) in acetonitrile. The HPLC experiments were performed as previously described. Radioactivity was quantified using a Packard spectrometer (Crystal I1 multidetector system, San Francisco, CA, USA) with the native toxin eluted at 18 min. The iodination mixture yielded only two peaks (RT = 2 min and RdT = 25 min); approximately 70–85% of the radioactivity was linked to the peak (RT = 25 min), which was postulated to correspond to the mono-iod derivative.
4.10. Binding Assay for SKCa Channels
The process of iodination of apamin was executed utilizing IODO-GEN. In displacement assays, 50 μL of 0.1 nM ^125I-apamine (2000 Ci/mmol) was combined with 400 µL of synaptosome suspension (0.4 mg protein/mL). The samples were incubated with 50 µL of one of the competitor concentration series (MTX1, MTX or CHTX) in a final volume of 500 µL for 1 h at 0 °C. The incubation buffer consisted of 25 mM hydroxymethyl amino methane (Tris-HCl) (pH 7.2), 10 mM potassium chloride (KCl) and 0.1% BS. Following centrifugation for 10 min, the samples were centrifuged again and the resulting pellets were washed three times with 2 mL of the same buffer. The quantification of bound radioactivity was conducted utilizing (Packard Crystal II). The mean values of triplicate experiments are reported. Non-specific binding, characterized as less than 10% of total binding, was determined in the presence of an excess (10 nM) of unlabeled apamin.

[7] = biological target: T2, rat Kv1.2 (Rattus norvegicus, UniProt P63142); experiment: Two-electrode voltage clamp, Kv1.2 expressed in Xenopus laevis oocytes; assay type: cell-based
T2 construct: expressed in transfected cells; host or cells: Xenopus laevis oocytes, cRNA injection
Excerpt: as §2, §3, §4

[8] = test system: glioblastoma; details: subject of clinical trials; ref [9],[12],[13]; cited from earlier work
Excerpt: as §1

[9] = test system: glioma and melanoma cells; details: glioma (charybdotoxin) and melanoma (iberiotoxin); ref [12],[14]; cited from earlier work
Excerpt: as §1

[10] = 2.5 nM, extracellular application
[11] = kinetics of inhibition, after washing
[12] = oocytes, one value printed for Kv1.2 and Kv1.3
[13] = comparison in words (Kv1.2 and SKCa channels together)

T2 sequence (P63142 whole entry): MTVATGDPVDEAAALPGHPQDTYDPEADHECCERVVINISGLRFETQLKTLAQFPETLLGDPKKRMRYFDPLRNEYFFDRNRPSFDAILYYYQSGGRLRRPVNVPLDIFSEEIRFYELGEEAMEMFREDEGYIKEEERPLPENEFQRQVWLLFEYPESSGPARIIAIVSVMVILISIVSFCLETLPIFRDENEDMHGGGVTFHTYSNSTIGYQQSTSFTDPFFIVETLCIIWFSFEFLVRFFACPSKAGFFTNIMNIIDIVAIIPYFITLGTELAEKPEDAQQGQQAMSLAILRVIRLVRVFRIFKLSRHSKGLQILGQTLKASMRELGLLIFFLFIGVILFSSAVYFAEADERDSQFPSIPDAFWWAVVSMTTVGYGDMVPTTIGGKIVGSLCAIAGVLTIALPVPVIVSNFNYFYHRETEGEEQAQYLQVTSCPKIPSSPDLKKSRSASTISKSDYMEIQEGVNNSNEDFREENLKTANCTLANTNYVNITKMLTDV
T1 sequence (P15384 whole entry): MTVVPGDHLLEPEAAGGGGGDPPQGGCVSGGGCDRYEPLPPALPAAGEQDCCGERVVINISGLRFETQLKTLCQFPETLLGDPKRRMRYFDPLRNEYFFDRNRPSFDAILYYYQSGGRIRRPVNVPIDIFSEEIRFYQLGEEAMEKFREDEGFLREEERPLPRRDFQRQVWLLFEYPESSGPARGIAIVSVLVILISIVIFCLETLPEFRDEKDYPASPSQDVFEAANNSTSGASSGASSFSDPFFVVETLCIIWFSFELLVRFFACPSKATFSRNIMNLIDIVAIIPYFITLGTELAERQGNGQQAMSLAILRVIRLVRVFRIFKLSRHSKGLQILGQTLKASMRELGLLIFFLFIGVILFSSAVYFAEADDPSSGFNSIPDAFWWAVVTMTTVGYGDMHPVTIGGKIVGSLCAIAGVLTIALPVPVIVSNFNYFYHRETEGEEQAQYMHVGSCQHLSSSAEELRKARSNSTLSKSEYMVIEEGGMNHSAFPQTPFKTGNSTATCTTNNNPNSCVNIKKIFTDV

margatoxin (TIINVKCTSPKQCLPPCKAQFGQSAGAKCMNGKCKCYPH; UniProt P40755 1-39, looked up)
Inhibition of proliferation [1]: inhibited the proliferation of human lung adenocarcinoma cells

CSCC[C@@H]1NC(=O)[C@@H]2CSSC[C@H](NC(=O)[C@H](CO)NC(=O)[C@@H](N)C(C)C)C(=O)N[C@@H]([C@@H](C)O)C(=O)NCC(=O)N[C@@H](CO)C(=O)N[C@@H](CCCCN)C(=O)N[C@@H](CCC(=O)O)C(=O)N[C@@H](CSSC[C@@H](C(=O)N[C@@H](CCCCN)C(=O)N[C@H]3CSSC[C@@H](C(N)=O)NC(=O)CNC(=O)[C@H](Cc4ccc(O)cc4)NC3=O)NC(=O)[C@H](CCCCN)NC(=O)[C@H](CCCNC(=N)N)NC(=O)[C@H](CC(N)=O)NC1=O)C(=O)N[C@@H](Cc1ccc(O)cc1)C(=O)N[C@@H](C)C(=O)N1CCC[C@H]1C(=O)N[C@H]1CSSC[C@H](NC(=O)CNC(=O)[C@H]([C@@H](C)O)NC(=O)[C@H](CCC(N)=O)NC(=O)[C@H](CCCCN)NC(=O)[C@H](CCCCN)NC1=O)C(=O)N1CCC[C@H]1C(=O)N[C@@H](CC(N)=O)C(=O)N[C@@H](C)C(=O)N[C@@H](CCCCN)C(=O)N2 [MTX1] (H-VSCTGSKECYAPCKKQTGCPNAKCMNRKCKCYGC-NH2; disulfide 3-24, 9-29, 13-19, 31-34; N-terminus and C-terminus assumed)
Toxicity in mice (qualitative) ([2]; i.c.v. injection): highly toxic | Toxicity in mice relative to MTX ([2]; i.c.v., LD50 comparison with MTX): approximately eight times more lethal than MTX; also recorded: eight times more effectively than MTX; also recorded: eight times more toxicity than MTX | Dose with maximum fatality rate ([2]; i.c.v., doses 4, 6, 8, 10, 15 and 20 ng, six mice each): 20 ng | Time to death ([2]; i.c.v., doses 4–20 ng): 10 min | LD50 ([2]; i.c.v., male C57BL/6 mice (20 ± 2 g), six mice per dose, 4–20 ng, observed 24 h): 10 ng per mouse | LD50 ([2]; i.c.v., mice): 0.01 μg/mouse | Recognition by anti-MTX antibodies ([3]; different dilutions of anti-MTX mice polyclonal antibodies): well recognized by anti-MTX antibodies; also recorded: distinctly recognized | IC50 of anti-MTX serum binding relative to MTX ([3]; plates coated with 5 µg/mL antigen): identical | Interaction with the CHTX-binding site [4]: partially interacted with the CHTX-binding site | Reduction of outward Kv1.3 currents over voltage [5, 10]: markedly reduced outward Kv1.2 and Kv1.3 currents at all test voltages examined | Block of Kv1.3 relative to MTX ([5]; comparison in words): comparable effect to MTX; also recorded: in a comparable manner to MTX | Reversibility on washing, Kv1.3 [5, 11]: partial recovery after the washing | Hill coefficient, Kv1.3 concentration-response [5, 12]: 1.1 ± 0.1 | Potency on SKCa channels relative to MTX [6, 13]: higher binding affinity; also recorded: significantly more effective at inhibiting the Kv1.2 currents and SKCa channels | Affinity relative to MTX, apamin-sensitive SKCa channels ([6]; comparison of IC50 of MTX1 with IC50 of MTX (5 nM)): almost three times higher than that of MTX | IC50 ([6]; rat brain synaptosomes (0.4 mg protein/mL), 50 μL of 0.1 nM 125I-apamin, 1 h, 0 °C, pH 7.2, mean of triplicate, read-out: IC50, inhibition of 125I-apamin binding): 1.7 nM | Recognition of apamin receptor sites ([6]; rat brain synaptosomes, conclusion in words): recognizes apamin receptor sites with a high affinity and binds partially with these sites | IC50 on Kv1.2 relative to MTX ([7]; 0.26 nM of MTX1 against 0.8 nM of MTX): three times lower than that of MTX | Reduction of outward Kv1.2 currents over voltage [7, 10]: markedly reduced outward Kv1.2 and Kv1.3 currents at all test voltages examined | inhibition at 0.0025 µM ([7]; 2.5 nM, oocytes, read-out: Inhibition of Kv1.2 currents): 90% | Potency on Kv1.2 relative to MTX [7, 13]: higher binding affinity; also recorded: more active than MTX on the Kv1.2 channel; also recorded: significantly more effective at inhibiting the Kv1.2 currents and SKCa channels | Reversibility on washing, Kv1.2 [7, 11]: partial recovery after the washing | Hill coefficient, Kv1.2 concentration-response [7, 12]: 1.1 ± 0.1

chlorotoxin
Effect on glioblastoma cells [8]: specifically targets the invasion and migration of glioblastoma cells

iberiotoxin (QFTDVDCSVSKECWSVCKDLFGVDRGKCMGKKCRCYQ; UniProt P24663 1-37, looked up)
Inhibition of tumor cell proliferation and migration [9]: able to inhibit glioma and melanoma cell proliferation and migration

Reference: article PMC11477167, “Structure–Function Relationship of a Novel MTX-like Peptide (MTX1) Isolated and Characterized from the Venom of the Scorpion Maurus palmatus” (International Journal of Molecular Sciences, 2024)
